Here are results for eight compounds from ChEMBL document CHEMBL1201862, “PubChem BioAssay data set” (2004).

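Results reflect a 48-hour exposure of cells in 96-well plates to compound at five concentrations. GI50: concentration for 50% inhibition of growth.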 Calls of active or inactive are those of the source. Rule as the data show it: active = GI50 up to about 1.1 µM and inactive = higher.

Test systems include MDA-MB-231; OVCAR-5; SK-MEL-28; HCC 2998; HOP-62; SR; HL-60; MDA-MB-435; TK-10; ACHN; 786-0; MOLT-4; SK-MEL-5; CAKI-1; NCI/ADR-RES; K562; NCI-H460; MCF7; UACC-257; A549.
Assay in all cases: NCI tumour cell line growth inhibition, 48 h

As for `O=C1C(CO)=C(CO)C(=O)c2c(O)ccc(O)c21`, the GI50 in the assay with MDA-MB-231 was 1.35 µM (inactive); with OVCAR-5, 2.08 µM (inactive); with SK-MEL-28, 0.391 µM (active); in the assay with HCC 2998 it was 2.06 µM (inactive); in the assay with HOP-62 it was 1.04 µM (active); with SR it was 0.0902 µM (active). Moreover, the GI50 is 0.043 µM (active) in the assay with HL-60; 0.472 µM (active) in the assay with MDA-MB-435; 0.352 µM (active) in the assay on TK-10; 0.337 µM (active) in the assay on ACHN; 0.361 µM (active) in the assay with 786-0; 0.0497 µM (active) with MOLT-4. Also, the GI50 with SK-MEL-5 is 0.394 µM (active); in the assay on CAKI-1, 0.387 µM (active); in the assay with NCI/ADR-RES, 1.04 µM (active); in the assay with K562, 0.0877 µM (active); in the assay on NCI-H460, 0.923 µM (active); with MCF7, 0.118 µM (active). In addition, the results for the GI50 in the assay on UACC-257 and in the assay on A549 were 0.349 µM (active) and 1.64 µM (inactive), respectively.
In the case of `CC(=O)OC1=CC(n2cc(F)c(=O)[nH]c2=O)OC(C)C1=O` (stereo not given), the GI50 in the assay with MDA-MB-231 is > 88.7 µM (inactive); in the assay on OVCAR-5, 49.8 µM (inactive); in the assay with SK-MEL-28 it was 17.7 µM (inactive); in the assay on HCC 2998, 5.26 µM (inactive); with HOP-62, 23.7 µM (inactive); with SR it was 26.1 µM (inactive). Besides, the GI50 is 21.4 µM (inactive) in the assay on HL-60; 11.4 µM (inactive) in the assay with MDA-MB-435; > 77.4 µM (inactive) in the assay with TK-10; 18.4 µM (inactive) in the assay on ACHN; 26.4 µM (inactive) with 786-0; 39.8 µM (inactive) with MOLT-4. The GI50 in the assay on SK-MEL-5 was 13.2 µM (inactive); in the assay with CAKI-1 it was > 52.2 µM (inactive); with NCI/ADR-RES, 40.2 µM (inactive); in the assay with K562, 57 µM (inactive); in the assay on NCI-H460, 4.59 µM (inactive); in the assay with MCF7, 4.28 µM (inactive). Also, the results for the GI50 in the assay with UACC-257 and in the assay with A549 were 57.1 µM (inactive) and 7.29 µM (inactive), respectively.
With `C=C(CCC(C(=O)O)C1CCC2(C)C3=C(CCC12C)C1(C)CCC(O)C(C)(C)C1CC3)C(C)C` (stereo not given), the GI50 in the assay on MDA-MB-231 was 71 µM (inactive); in the assay on OVCAR-5, > 100 µM (inactive); with SK-MEL-28 it was 33.3 µM (inactive); with HCC 2998, 81.7 µM (inactive); in the assay on HOP-62 it was 8.91 µM (inactive); with SR, 12.1 µM (inactive). For the same compound, the GI50 was > 10 µM (inactive) in the assay with HL-60; > 100 µM (inactive) in the assay on MDA-MB-435; > 100 µM (inactive) in the assay with TK-10; 44.7 µM (inactive) in the assay on ACHN; 45.1 µM (inactive) in the assay on 786-0; 26.9 µM (inactive) in the assay on MOLT-4. Also, the GI50 with SK-MEL-5 is 33.7 µM (inactive); in the assay on CAKI-1, > 100 µM (inactive); with NCI/ADR-RES, 19.3 µM (inactive); in the assay with K562, 14.2 µM (inactive); with NCI-H460 it was 21.1 µM (inactive); in the assay with MCF7, 60.7 µM (inactive). Further, the GI50 is 97.5 µM (inactive) with UACC-257 and 17.1 µM (inactive) in the assay with A549.
With `C=C1C(=O)O[C@H]2C[C@@]3(C)[C@H](O)CCC(=C)[C@@H]3[C@@H](OC(C)=O)[C@H]12`, the GI50 in the assay with MDA-MB-231 is 16.1 µM (inactive); with OVCAR-5, 3.27 µM (inactive); with SK-MEL-28, 20 µM (inactive); in the assay on HCC 2998 it was 15.1 µM (inactive); with HOP-62 it was 16.4 µM (inactive); in the assay on SR, 2.22 µM (inactive). Besides, the GI50 with HL-60 was 2.19 µM (inactive); in the assay on MDA-MB-435 it was 15.5 µM (inactive); in the assay with TK-10, 6.15 µM (inactive); with ACHN, 3.53 µM (inactive); in the assay on 786-0, 5.85 µM (inactive); in the assay on MOLT-4, 3.13 µM (inactive). The GI50 in the assay on SK-MEL-5 was 12.1 µM (inactive); with CAKI-1, 1.48 µM (inactive); in the assay with NCI/ADR-RES, 21.8 µM (inactive); with K562, 2.63 µM (inactive); in the assay with NCI-H460, 13.1 µM (inactive); in the assay with MCF7 it was 1.51 µM (inactive). The GI50 is 15.4 µM (inactive) in the assay on UACC-257 and 14.7 µM (inactive) in the assay with A549.
With `CN1CCc2cc3c(c4c2C1C(O)c1ccccc1-4)OCO3` (stereo not given), the GI50 in the assay with MDA-MB-231 is 6.05 µM (inactive); with OVCAR-5, 8.24 µM (inactive); in the assay with SK-MEL-28 it was 20.2 µM (inactive); in the assay with HCC 2998 it was 8.91 µM (inactive); with HOP-62 it was 4.67 µM (inactive); in the assay with SR it was 4.6 µM (inactive). The GI50 is 2.23 µM (inactive) in the assay on HL-60; 6.12 µM (inactive) in the assay with MDA-MB-435; 14.2 µM (inactive) in the assay with TK-10; 6.05 µM (inactive) with ACHN; 6.21 µM (inactive) in the assay on 786-0; 2.98 µM (inactive) with MOLT-4. In addition, the GI50 in the assay on SK-MEL-5 was 7.98 µM (inactive); with CAKI-1, 3.75 µM (inactive); in the assay with NCI/ADR-RES it was 6.47 µM (inactive); with K562, 4.57 µM (inactive); in the assay on NCI-H460, 3.33 µM (inactive); in the assay with MCF7 it was 4.31 µM (inactive). Further, the GI50 in the assay with UACC-257 was 7.19 µM (inactive); with A549 it was 3.89 µM (inactive).
Regarding `O=C1OC2C=CCC1C2` (stereo not given), the GI50 with MDA-MB-231, in the assay with OVCAR-5, with SK-MEL-28, in the assay on HCC 2998, with HOP-62 and in the assay on SR was > 100 µM (inactive) in each case. Further, the GI50 in the assay on HL-60, in the assay with MDA-MB-435, in the assay on TK-10, in the assay with ACHN, in the assay on 786-0 and in the assay on MOLT-4 was > 100 µM (inactive) throughout. Moreover, the GI50 in the assay on SK-MEL-5, with CAKI-1, in the assay with NCI/ADR-RES, in the assay on K562, in the assay with NCI-H460 and with MCF7 was > 100 µM (inactive) each time. The GI50 in the assay with UACC-257 and in the assay with A549 was > 100 µM (inactive) each time.
On to `O=C1CSC(c2cccc(Oc3ccccc3)c2)N1c1cc(Cl)ccc1Cl` (stereo not given), for which the GI50 in the assay on MDA-MB-231 was 20.7 µM (inactive); with OVCAR-5, 27.7 µM (inactive); with SK-MEL-28, 29.5 µM (inactive); in the assay on HCC 2998, 14 µM (inactive); in the assay on HOP-62, 21.9 µM (inactive); with SR it was 14.9 µM (inactive). Moreover, the GI50 with HL-60 was 27.3 µM (inactive); in the assay with MDA-MB-435 it was 15.4 µM (inactive); in the assay on TK-10, 25.5 µM (inactive); with ACHN, 24 µM (inactive); in the assay on 786-0 it was 18.2 µM (inactive); with MOLT-4 it was 22.6 µM (inactive). For the same compound, the GI50 was 16.5 µM (inactive) in the assay with SK-MEL-5; 22.5 µM (inactive) in the assay with CAKI-1; 29.2 µM (inactive) in the assay on NCI/ADR-RES; 19.4 µM (inactive) in the assay with K562; 20.1 µM (inactive) with NCI-H460; 6.3 µM (inactive) in the assay on MCF7. In addition, the results for the GI50 with UACC-257 and in the assay on A549 were 22.7 µM (inactive) and 48 µM (inactive), respectively.
Take `O=C1CCCCC/C1=C\c1cccc(F)c1`: the GI50 in the assay on MDA-MB-231 was > 100 µM (inactive); in the assay with OVCAR-5, > 100 µM (inactive); with SK-MEL-28, > 100 µM (inactive); with HCC 2998, 59.8 µM (inactive); in the assay on HOP-62 it was > 100 µM (inactive); in the assay with SR, 13.5 µM (inactive). The GI50 is 17.1 µM (inactive) in the assay with HL-60; 55.2 µM (inactive) with MDA-MB-435; 62.5 µM (inactive) in the assay on TK-10; 35.6 µM (inactive) in the assay on ACHN; > 100 µM (inactive) in the assay on 786-0; 24.8 µM (inactive) with MOLT-4. The GI50 with SK-MEL-5 was 66.7 µM (inactive); in the assay with CAKI-1, 65.9 µM (inactive); in the assay with NCI/ADR-RES it was > 100 µM (inactive); in the assay with K562, 49.5 µM (inactive); with NCI-H460 it was 54.5 µM (inactive); in the assay on MCF7 it was 64.9 µM (inactive). Moreover, the GI50 is 59 µM (inactive) in the assay with UACC-257 and > 100 µM (inactive) in the assay with A549.
